Test results reported in patent US10703764B2, “Benzopiperazine compositions as BET bromodomain inhibitors” (FORMA Therapeutics, Inc., priority 2013, dated 2020).

Assays:
BRD4 BD1 = target: T1, BRD4 BD1 (Homo sapiens, UniProt O60885); test: AlphaScreen binding assay, BRD4 Bromodomain 1
T1 construct: made in house
How it was run: (§1)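 An AlphaScreen competition format was used with His-BRD4 BD1 or BD2 and biotin-H4 K5/8/12/16-acetyl peptide, each at matched final levels of 50 nM (BD1) or 100 nM (BD2). Incubation in HEPES/NaCl buffer with 0.1% BSA and 0.01% Triton X-100 ran ≥1 h before IC50 determination.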

MV4-11 cells = test: Oncology cell growth assay (3-day proliferation, CellTiter-Glo); format: cell-based; conditions: Homo sapiens, MV4-11, 72 h, AML cell line MV4-11, 72 hours, compounds grouped by IC50 range, read-out: MV4-11 IC50 (inhibition of proliferation, gIC50)
How it was run: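 Compounds were serially diluted 3-fold in DMSO, giving final well concentrations from 10 down to 0.0045 μM. MV4-11 cells were then seeded at 3000 cells/well in RPMI 1640 with 10% FBS and incubated 72 hours. CellTiter-Glo signal was measured and gIC50 obtained by four-parameter logistic regression.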

BRD4 BD2 = target: T2, BRD4 BD2 (Homo sapiens, UniProt O60885); test: AlphaScreen binding assay, BRD4 Bromodomain 2
T2 construct: made in house
How it was run: as §1

IC50 (BRD4 BD1) [nM]	IC50 (MV4-11 cells) [nM]	IC50 (BRD4 BD2) [nM]	Structure (SMILES)
1000 to 10000	> 500	50 to 500	CC(=O)N1c2ccc(-c3ccc(S(=O)(=O)C(C)C)cc3)cc2N(C(=O)C2CC2)C[C@@H]1C [Example I-1062]
1000 to 10000	> 500	50 to 500	CC(=O)N1c2ccc(-c3ccc(S(=O)(=O)C(C)C)cc3)cc2N(C(=O)C2CCC2)C[C@@H]1C [Example I-1063]
1000 to 10000	> 500	50 to 500	CCOC(=O)N1C[C@H](C)N(C(C)=O)c2ccc(-c3ccc(S(=O)(=O)C(C)C)cc3)cc21 [Example I-1064]
100 to 1000	100 to 500	50 to 500	CC(=O)N1c2ccc(-c3ccc(S(=O)(=O)C(C)C)cc3)cc2N(C(=O)OC(C)C)C[C@@H]1C [Example I-1065]
1000 to 10000	> 500	50 to 500	CC(=O)N1c2ccc(-c3ccc(S(N)(=O)=O)cc3)cc2N(C(=O)C2CC2)C[C@@H]1C [Example I-1066]
> 10000	> 500	50 to 500	CC(=O)N1c2ccc(-c3ccc(S(N)(=O)=O)cc3)cc2N(C(=O)C2CCC2)C[C@@H]1C [Example I-1067]
1000 to 10000	> 500	50 to 500	CCOC(=O)N1C[C@H](C)N(C(C)=O)c2ccc(-c3ccc(S(N)(=O)=O)cc3)cc21 [Example I-1068]
100 to 1000	100 to 500	50 to 500	CC(=O)N1c2ccc(-c3ccc(S(N)(=O)=O)cc3)cc2N(C(=O)OC(C)C)C[C@@H]1C [Example I-1069]
1000 to 10000	100 to 500	50 to 500	CCCS(=O)(=O)c1ccc(-c2ccc3c(c2)N(C(=O)C2CC2)C[C@H](C)N3C(C)=O)cc1 [Example I-1070]
1000 to 10000	100 to 500	50 to 500	CCCS(=O)(=O)c1ccc(-c2ccc3c(c2)N(C(=O)C2CCC2)C[C@H](C)N3C(C)=O)cc1 [Example I-1071]
100 to 1000	100 to 500	50 to 500	CCCS(=O)(=O)c1ccc(-c2ccc3c(c2)N(C(=O)OCC)C[C@H](C)N3C(C)=O)cc1 [Example I-1072]
100 to 1000	100 to 500	50 to 500	CCCS(=O)(=O)c1ccc(-c2ccc3c(c2)N(C(=O)OC(C)C)C[C@H](C)N3C(C)=O)cc1 [Example I-1073]
1000 to 10000	> 500	50 to 500	CC(=O)N1c2ccc(-c3ccc(S(=O)(=O)CC4CC4)cc3)cc2N(C(=O)C2CC2)C[C@@H]1C [Example I-1074]
1000 to 10000	> 500	50 to 500	CC(=O)N1c2ccc(-c3ccc(S(=O)(=O)CC4CC4)cc3)cc2N(C(=O)C2CCC2)C[C@@H]1C [Example I-1075]
1000 to 10000	> 500	50 to 500	CCOC(=O)N1C[C@H](C)N(C(C)=O)c2ccc(-c3ccc(S(=O)(=O)CC4CC4)cc3)cc21 [Example I-1076]
1000 to 10000	100 to 500	50 to 500	CC(=O)N1c2ccc(-c3ccc(S(=O)(=O)CC4CC4)cc3)cc2N(C(=O)OC(C)C)C[C@@H]1C [Example I-1077]
1000 to 10000	100 to 500	50 to 500	CC(=O)N1c2ccc(-c3ccc(S(=O)(=O)CC(C)C)cc3)cc2N(C(=O)C2CC2)C[C@@H]1C [Example I-1078]
1000 to 10000	> 500	50 to 500	CC(=O)N1c2ccc(-c3ccc(S(=O)(=O)CC(C)C)cc3)cc2N(C(=O)C2CCC2)C[C@@H]1C [Example I-1079]
1000 to 10000	> 500	50 to 500	CCOC(=O)N1C[C@H](C)N(C(C)=O)c2ccc(-c3ccc(S(=O)(=O)CC(C)C)cc3)cc21 [Example I-1080]
1000 to 10000	> 500	50 to 500	CC(=O)N1c2ccc(-c3ccc(S(=O)(=O)CC(C)C)cc3)cc2N(C(=O)OC(C)C)C[C@@H]1C [Example I-1081]
1000 to 10000	> 500	50 to 500	CC(=O)N1c2ccc(-c3ccc(S(C)(=O)=O)c(F)c3)cc2N(C(=O)C2CC2)C[C@@H]1C [Example I-1082]
1000 to 10000	> 500	50 to 500	CC(=O)N1c2ccc(-c3ccc(S(C)(=O)=O)c(F)c3)cc2N(C(=O)C2CCC2)C[C@@H]1C [Example I-1083]
1000 to 10000	> 500	50 to 500	CCOC(=O)N1C[C@H](C)N(C(C)=O)c2ccc(-c3ccc(S(C)(=O)=O)c(F)c3)cc21 [Example I-1084]
1000 to 10000	> 500	50 to 500	CC(=O)N1c2ccc(-c3ccc(S(C)(=O)=O)c(F)c3)cc2N(C(=O)OC(C)C)C[C@@H]1C [Example I-1085]

IC50 (BRD4 BD1) [nM]	IC50 (MV4-11 cells) [nM]	IC50 (BRD4 BD2) [nM]	Structure (SMILES)
1000 to 10000	> 500	50 to 500	CC(=O)N1c2ccc(-c3cccc(S(=O)(=O)C4CC4)c3)cc2N(C(=O)C2CC2)C[C@@H]1C [Example I-1086]
1000 to 10000	> 500	50 to 500	CC(=O)N1c2ccc(-c3cccc(S(=O)(=O)C4CC4)c3)cc2N(C(=O)C2CCC2)C[C@@H]1C [Example I-1087]
1000 to 10000	> 500	50 to 500	CCOC(=O)N1C[C@H](C)N(C(C)=O)c2ccc(-c3cccc(S(=O)(=O)C4CC4)c3)cc21 [Example I-1088]
100 to 1000	100 to 500	50 to 500	CC(=O)N1c2ccc(-c3cccc(S(=O)(=O)C4CC4)c3)cc2N(C(=O)OC(C)C)C[C@@H]1C [Example I-1089]
1000 to 10000	> 500	50 to 500	CCS(=O)(=O)c1cccc(-c2ccc3c(c2)N(C(=O)C2CC2)C[C@H](C)N3C(C)=O)c1 [Example I-1090]
1000 to 10000	> 500	50 to 500	CCS(=O)(=O)c1cccc(-c2ccc3c(c2)N(C(=O)C2CCC2)C[C@H](C)N3C(C)=O)c1 [Example I-1091]
1000 to 10000	> 500	50 to 500	CCOC(=O)N1C[C@H](C)N(C(C)=O)c2ccc(-c3cccc(S(=O)(=O)CC)c3)cc21 [Example I-1092]
100 to 1000	100 to 500	50 to 500	CCS(=O)(=O)c1cccc(-c2ccc3c(c2)N(C(=O)OC(C)C)C[C@H](C)N3C(C)=O)c1 [Example I-1093]
1000 to 10000	> 500	> 500	CC(=O)N1c2ccc(-c3cc(Cl)cc(S(C)(=O)=O)c3)cc2N(C(=O)C2CC2)C[C@@H]1C [Example I-1094]
1000 to 10000	> 500	> 500	CC(=O)N1c2ccc(-c3cc(Cl)cc(S(C)(=O)=O)c3)cc2N(C(=O)C2CCC2)C[C@@H]1C [Example I-1095]
1000 to 10000	> 500	> 500	CCOC(=O)N1C[C@H](C)N(C(C)=O)c2ccc(-c3cc(Cl)cc(S(C)(=O)=O)c3)cc21 [Example I-1096]
1000 to 10000	> 500	> 500	CC(=O)N1c2ccc(-c3cc(Cl)cc(S(C)(=O)=O)c3)cc2N(C(=O)OC(C)C)C[C@@H]1C [Example I-1097]
1000 to 10000	> 500	50 to 500	CC(=O)N1c2ccc(-c3ccc(F)c(S(C)(=O)=O)c3)cc2N(C(=O)C2CC2)C[C@@H]1C [Example I-1098]
1000 to 10000	> 500	50 to 500	CC(=O)N1c2ccc(-c3ccc(F)c(S(C)(=O)=O)c3)cc2N(C(=O)C2CCC2)C[C@@H]1C [Example I-1099]
1000 to 10000	> 500	50 to 500	CCOC(=O)N1C[C@H](C)N(C(C)=O)c2ccc(-c3ccc(F)c(S(C)(=O)=O)c3)cc21 [Example I-1100]
1000 to 10000	> 500	50 to 500	CC(=O)N1c2ccc(-c3ccc(F)c(S(C)(=O)=O)c3)cc2N(C(=O)OC(C)C)C[C@@H]1C [Example I-1101]
100 to 1000	> 500	50 to 500	CCOC(=O)N1C[C@H](C)N(C(C)=O)c2ccc(-c3ccc(OCCS(C)(=O)=O)cc3)cc21 [Example I-1102]
100 to 1000	> 500	50 to 500	CC(=O)N1c2ccc(-c3ccc(OCCS(C)(=O)=O)cc3)cc2N(C(=O)OC(C)C)C[C@@H]1C [Example I-1103]
1000 to 10000	100 to 500	50 to 500	CNS(=O)(=O)c1cccc(-c2ccc3c(c2)N(C(=O)C2CC2)C[C@H](C)N3C(C)=O)c1 [Example I-1104]
1000 to 10000	> 500	50 to 500	CNS(=O)(=O)c1cccc(-c2ccc3c(c2)N(C(=O)C2CCC2)C[C@H](C)N3C(C)=O)c1 [Example I-1105]
1000 to 10000	100 to 500	50 to 500	CCOC(=O)N1C[C@H](C)N(C(C)=O)c2ccc(-c3cccc(S(=O)(=O)NC)c3)cc21 [Example I-1106]
100 to 1000	100 to 500	50 to 500	CNS(=O)(=O)c1cccc(-c2ccc3c(c2)N(C(=O)OC(C)C)C[C@H](C)N3C(C)=O)c1 [Example I-1107]
1000 to 10000	100 to 500	50 to 500	CC(=O)N1c2ccc(-c3cccc(S(=O)(=O)NCCO)c3)cc2N(C(=O)C2CC2)C[C@@H]1C [Example I-1108]
1000 to 10000	> 500	50 to 500	CC(=O)N1c2ccc(-c3cccc(S(=O)(=O)NCCO)c3)cc2N(C(=O)C2CCC2)C[C@@H]1C [Example I-1109]
